Patent US7115279B2, “Pharmaceutical compositions of cholesteryl ester transfer protein inhibitors” (priority 2000, dated 2006)
Each block holds one compound with its values, some of them ahead of it.

Tests used:
Type in all cases: physicochemical
[1] = in vitro dissolution test, microcentrifuge method, PBS (Example 8, Drug 2 dispersions); settings: for Drug 2 Concentration / AUC: PBS pH 6.5, 37° C.; for Drug 2 Concentration: dose about 1000 μg/mL
Protocol: The spray-dried dispersions of Examples 6 and 7 were evaluated in an in vitro dissolution test using a microcentrifuge method. In this test, the spray-dried dispersion was added to a microcentrifuge tube for a Drug 2 dose of about 1000 μg/mL (7.2 mg for Example 6, 18 mg for Example 7). The tube was placed in a 37° C. sonicating bath, and 1.8 mL phosphate buffered saline (PBS) at pH 6.5 and 290 mOsm/kg was added. The samples were quickly mixed using a vortex mixer for about 60 seconds. The samples were centrifuged at 13,000 G at 37° C. for 1 minute. The resulting supernatant solution was then sampled and diluted 1:6 (by volume) with methanol and then analyzed by high-performance liquid chromatography (HPLC). The contents of the tubes were mixed on the vortex mixer and allowed to stand undisturbed at 37° C. until the next sample was taken. Samples were collected at 4, 10, 20, 40, 90, and 1200 minutes. […]

[2] = in vitro dissolution test, receptor solution MFDS (Example 17, Drug 2 dispersions); settings: TCmax 400 or 100 μg/mL, read-out: Cmax, 90
Protocol: The spray-dried dispersions of Examples 6 and 7 were evaluated in an in vitro dissolution test using a microcentrifuge method. In this test, the spray-dried dispersion was added to a microcentrifuge tube for a Drug 2 dose of about 1000 μg/mL (7.2 mg for Example 6, 18 mg for Example 7). The tube was placed in a 37° C. sonicating bath, and 1.8 mL phosphate buffered saline (PBS) at pH 6.5 and 290 mOsm/kg was added. The samples were quickly mixed using a vortex mixer for about 60 seconds. The samples were centrifuged at 13,000 G at 37° C. for 1 minute. The resulting supernatant solution was then sampled and diluted 1:6 (by volume) with methanol and then analyzed by high-performance liquid chromatography (HPLC). The contents of the tubes were mixed on the vortex mixer and allowed to stand undisturbed at 37° C. until the next sample was taken. Samples were collected at 4, 10, 20, 40, 90, and 1200 minutes.
The dispersions of Examples 9–16 were also evaluated in an in vitro dissolution test using receptor solutions of MFDS using the procedures outlined in Example 8.
For Control 3, an in vitro dissolution test was performed using the procedure described above except that 0.72 mg of crystalline Drug 2 was used.

[3] = in vitro dissolution test, microcentrifuge method, PBS (Example 42, Drugs 4-9 dispersions); settings: PBS pH 6.5, 37° C.; for Cmax: phosphate-buffered saline, read-out: Cmax, 90
Protocol: In this method, 15 mg of each SDD was added to a 2-mL microcentrifuge tube. The tube was placed in a 37° C. sonicating bath, and 1.5 mL of a phosphate-buffered saline (PBS) solution at pH 6.5 and 290 mOsm/kg) was added, resulting in a TCmax of 1000 μg/mL. The samples were quickly mixed using a combination of vortex mixer and sonication for about 90 seconds. The samples were centrifuged at 13,000 G at 37° C. for 1 minute. The resulting supernatant solution was then sampled and diluted 1:6 (by volume) with methanol and then analyzed by HPLC. The tubes were then mixed on the vortex mixer and allowed to stand undisturbed at 37° C. until the next sample. Samples were collected at 4, 10, 20, 40, and 90 minutes.
For Controls 6–11, an in vitro dissolution test was performed using the procedure described above, except that 1.5 mg of non-crystalline drug was placed in a microcentrifuge tube and mixed with 1.5 mL of PBS.

[4] = in vitro dissolution test, microcentrifuge method, MFDS (Example 5, Drug 1 dispersions); settings: model-fasted duodenal solution (MFDS), pH 6.5, maximum concentration of Drug 1 in solution during the 90-minute test, TCmax 100 or 500 μg/mL
Protocol: The spray-dried dispersions of Examples 1 to 4 were evaluated in in vitro dissolution tests using a microcentrifuge method. In this method, 1 mg of the spray-dried dispersions was added to a 1.5-mL microcentrifuge tube. The tube was placed in a 37° C. sonicating bath, and 1 mL of a model-fasted duodenal solution (MFDS) (comprising sodium taurocholate/1-palmitoyl-2-oleoyl-sn-glycero-3-phosphocholine (NaTC-POPC) in phosphate-buffered saline (PBS) at pH 6.5 and 290 mOsm/kg) was added. The samples were quickly mixed using a combination of vortex mixer and sonication for about 90 seconds. The theoretical maximum concentration (“TCmax”) of drug for Examples 1–3 if all the drug dissolved was 100 μg/mL, while for Example 4 the TCmax was 500 μg/mL. The samples were centrifuged at 13,000 G at 37° C. for 1 minute. The resulting supernatant solution was then sampled (100 μL) and diluted with 200 μL methanol and then analyzed by HPLC. The tubes were then mixed on the vortex mixer and allowed to stand undisturbed at 37° C. until the next sample. Samples were collected at 3, 10, 30, 60, and 90 minutes and for Examples 1 and 2 at 1200 minutes.
For Control 1, an in vitro test was performed using the procedure described above, except that 0.18 mg of crystalline Drug 1 was placed in a microcentrifuge tube and mixed with 1.8 mL of MFDS.

[5] = in vitro dissolution test, microcentrifuge method, PBS (Example 29, Drug 3 dispersions); settings: phosphate-buffered saline, pH 6.5, TCmax 400 μg/mL, read-out: Cmax, 90
Protocol: The spray-dried dispersions of Examples 21–28 were evaluated in an in vitro dissolution test using a microcentrifuge method. In this method, 7.2 mg of each SDD was added to a 2-mL microcentrifuge tube. The tube was placed in a 37° C. sonicating bath, and 1.8 mL of a phosphate-buffered saline (PBS) solution at pH 6.5 and 290 mOsm/kg was added, resulting in a TCmax of 400 μg/mL. The samples were quickly mixed using a combination of vortex mixer and sonication for about 90 seconds. The samples were centrifuged at 13,000 G at 37° C. for 1 minute. The resulting supernatant solution was then sampled and diluted 1:6 (by volume) with methanol and then analyzed by HPLC. The tubes were then mixed on the vortex mixer and allowed to stand undisturbed at 37° C. until the next sample. Samples were collected at 4, 10, 20, 40, 90 and 1200 minutes.
For Control 5, an in vitro dissolution test was performed using the procedure described above, except that 0.72 mg of non-crystalline Drug 3 was placed in a microcentrifuge tube and mixed with 1.8 mL of PBS.

Cmax ([3]; TCmax 1000 μg/mL): < 1000 ng/mL
Structure (SMILES): COC(=O)N(Cc1cc(C(F)(F)F)cc(C(F)(F)F)c1)[C@H]1C[C@@H](C2CC2)N(C(=O)OC(C)C)c2ccc(C(F)(F)F)cc21 [Control 10, [2S,4S] 4-[(3,5-bis-trifluoromethyl-benzyl)-methoxycarbonyl-amino]-2-cyclopropyl-6-trifluoromethyl-3,4-dihydro-2H-quinoline-1-carboxylic acid isopropyl ester]

Cmax ([3]; TCmax 1000 μg/mL): < 1000 ng/mL
Structure (SMILES): CC[C@@H]1C[C@H](N(Cc2cc(C(F)(F)F)cc(C(F)(F)F)c2)C(C)=O)c2cc(C(F)(F)F)ccc2N1C(=O)OC(C)C [Control 9, [2R,4S] 4-[acetyl-(3,5-bis-trifluoromethyl-benzyl)-amino]-2-ethyl-6-trifluoromethyl-3,4-dihydro-2H-quinoline-1-carboxylic acid isopropyl ester]

Cmax, 90 ([3]; TCmax 1000 μg/mL): <1000 ng/mL
Structure (SMILES): CC1(C)Cc2nc(C3CCCC3)c([C@@H](F)c3ccc(C(F)(F)F)cc3)c(-c3ccc(F)cc3)c2[C@@H](O)C1 [Control 11, [3S,5S] 2-cyclopentyl-4-(4-fluoro-phenyl)-3-[fluoro-(4-trifluoromethyl-phenyl)-methyl]-7,7-dimethyl-5,6,7,8-tetrahydro-quinolin-5-ol]

Further lines, the compound ahead of its results:

Structure (SMILES): CCOC(=O)N1c2ccc(C(F)(F)F)cc2[C@@H](N(Cc2cc(C(F)(F)F)cc(C(F)(F)F)c2)C(=O)OC)C[C@H]1CC [Control 2, [2R,4S] 4-[(3,5-bis-trifluoromethyl-benzyl)-methoxycarbonyl-amino]-2-ethyl-6-trifluoromethyl-3,4-dihydro-2H-quinoline-1-carboxylic acid ethyl ester]
Drug 2 Concentration ([1]; time 0 min): 0 µg/mL | Drug 2 Concentration ([1]; time 4 min): 6 µg/mL | Drug 2 Concentration ([1]; time 10 min): <1 µg/mL | Drug 2 Concentration ([1]; time 20 min): <1 µg/mL | Drug 2 Concentration ([1]; time 40 min): 3 µg/mL | Drug 2 Concentration ([1]; time 90 min): <1 µg/mL | Drug 2 Concentration ([1]; time 1200 min): <1 µg/mL | AUC ([1]; time 0 min): 0 µg·min/mL | AUC ([1]; time 4 min): 12 µg·min/mL | AUC ([1]; time 10 min): 30 µg·min/mL | AUC ([1]; time 20 min): 30 µg·min/mL | AUC ([1]; time 40 min): 60 µg·min/mL | AUC ([1]; time 90 min): 135 µg·min/mL | AUC ([1]; time 1200 min): 135 µg·min/mL | AUC90 ([1]; area under the aqueous concentration versus time curve after 90 minutes, PBS): 135 µg·min/mL | Cmax at 1000 μg/mL ([1]; phosphate buffered saline (PBS), pH 6.5, maximum concentration of Drug 2 in solution during the first 90 minutes, PBS): 6000 ng/mL

Structure (SMILES): CCOC(=O)N1c2ccc(C(F)(F)F)cc2[C@@H](N(Cc2cc(C(F)(F)F)cc(C(F)(F)F)c2)C(=O)OC)C[C@H]1CC [Control 3, [2R,4S] 4-[(3,5-bis-trifluoromethyl-benzyl)-methoxycarbonyl-amino]-2-ethyl-6-trifluoromethyl-3,4-dihydro-2H-quinoline-1-carboxylic acid ethyl ester]
Cmax [2]: < 1000 ng/mL

Structure (SMILES): CCOC(=O)N1c2cc(OC)c(OC)cc2[C@@H](N(Cc2cc(C(F)(F)F)cc(C(F)(F)F)c2)C(=O)OC)C[C@H]1C [Control 6, [2R,4S] 4-[(3,5-bis-trifluoromethyl-benzyl)-methoxycarbonyl-amino]-6,7-dimethoxy-2-methyl-3,4-dihydro-2H-quinoline-1-carboxylic acid ethyl ester]
Cmax ([3]; TCmax 1000 μg/mL): < 1000 ng/mL

Structure (SMILES): COC(=O)N(Cc1cc(C(F)(F)F)cc(C(F)(F)F)c1)[C@@H]1C[C@H](C2CC2)N(C(=O)OC(C)C)c2ccc(C(F)(F)F)cc21 [Control 1, [2R,4R] 4-[(3,5-bis-trifluoromethyl-benzyl)-methoxycarbonyl-amino]-2-cyclopropyl-6-trifluoromethyl-3,4-dihydro-2H-quinoline-1-carboxylic acid isopropyl ester]
Cmax at 100 μg/mL [4]: 900 ng/mL

Structure (SMILES): CCOC(=O)N1c2cc3c(cc2[C@@H](N(Cc2cc(C(F)(F)F)cc(C(F)(F)F)c2)C(=O)OC)C[C@H]1C)CCC3 [Control 8, [2R,4S] 4-[(3,5-bis-trifluoromethyl-benzyl)-methoxycarbonyl-amino]-2-methyl-2,3,4,6,7,8-hexahydro-cyclopenta[g]quinoline-1-carboxylic acid ethyl ester]
AUC ([3]; Time 0 min): 0 µg·min/mL | Concentration ([3]; Time 0 min): 0 ng/mL | Cmax ([3]; TCmax 1000 μg/mL): < 1000 ng/mL

Structure (SMILES): CCOC(=O)N1c2cc(CC)c(CC)cc2[C@@H](N(Cc2cc(C(F)(F)F)cc(C(F)(F)F)c2)C(=O)OC)C[C@H]1C [Control 7, [2R,4S] 4-[(3,5-bis-trifluoromethyl-benzyl)-methoxycarbonyl-amino]-6,7-diethyl-2-methyl-3,4-dihydro-2H-quinoline-1-carboxylic acid ethyl ester]
Cmax ([3]; TCmax 1000 μg/mL): < 1000 ng/mL

Structure (SMILES): CCCOC(=O)N1c2ccc(C(F)(F)F)cc2[C@@H](N(Cc2cc(C(F)(F)F)cc(C(F)(F)F)c2)C(=O)OC)C[C@H]1CC [Control 5, [2R,4S] 4-[(3,5-bis-trifluoromethyl-benzyl)-methoxycarbonyl-amino]-2-ethyl-6-trifluoromethyl-3,4-dihydro-2H-quinoline-1-carboxylic acid propyl ester]
Cmax [5]: < 100 ng/mL
